Test results as given in PubChem BioAssay (NCI).
“And” between values parts separate entries of the source, which are not always exact repeats. Equal values may be shown once.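 Cells were grown in 96-well plates and exposed to each compound for 48 hours at five concentrations; endpoints were interpolated linearly between bracketing concentrations, or set to the highest concentration if not reached. Here, GI50 denotes the concentration required for 50% inhibition of growth. The concentration for full growth arrest is given as TGI.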

Assays:
Assay in all cases: DTP human tumour cell line panel, 48 h
SR leukemia = test system: SR leukemia
MCF7 breast = test system: MCF7 breast
KM12 colon = test system: KM12 colon
A498 renal = test system: A498 renal
SNB-19 CNS = test system: SNB-19 CNS
OVCAR-4 ovarian = test system: OVCAR-4 ovarian
SK-MEL-5 melanoma = test system: SK-MEL-5 melanoma
T-47D breast = test system: T-47D breast
RPMI-8226 leukemia = test system: RPMI-8226 leukemia
UO-31 renal = test system: UO-31 renal
SF-295 CNS = test system: SF-295 CNS
SK-MEL-28 melanoma = test system: SK-MEL-28 melanoma
EKVX NSCLC = test system: EKVX NSCLC
OVCAR-8 ovarian = test system: OVCAR-8 ovarian
MALME-3M melanoma = test system: MALME-3M melanoma
SF-268 CNS = test system: SF-268 CNS
UACC-62 melanoma = test system: UACC-62 melanoma
MOLT-4 leukemia = test system: MOLT-4 leukemia
LOX IMVI melanoma = test system: LOX IMVI melanoma

| Structure (SMILES) | TGI (SR leukemia) | TGI (MCF7 breast) [µM] | TGI (KM12 colon) | TGI (A498 renal) [µM] | TGI (SNB-19 CNS) | TGI (OVCAR-4 ovarian) | TGI (SK-MEL-5 melanoma) | TGI (T-47D breast) | TGI (RPMI-8226 leukemia) | TGI (UO-31 renal) | TGI (SF-295 CNS) | TGI (SK-MEL-28 melanoma) | TGI (EKVX NSCLC) | TGI (OVCAR-8 ovarian) | TGI (MALME-3M melanoma) | TGI (SF-268 CNS) | TGI (UACC-62 melanoma) | TGI (MOLT-4 leukemia) | TGI (LOX IMVI melanoma) | GI50 (SR leukemia) |
| --- | --- | --- | --- | --- | --- | --- | --- | --- | --- | --- | --- | --- | --- | --- | --- | --- | --- | --- | --- | --- |
| COC(=O)/C=C1\CCCN1CCc1cc2c(cc1CC#N)OCO2 | > 100 µM | > 100 | > 100 µM | 80.2 | > 100 µM | > 100 µM | 81.2 µM | > 100 µM | > 100 µM | > 100 µM | > 100 µM | > 100 µM | > 100 µM | > 100 µM | > 100 µM | > 100 µM | > 100 µM | > 100 µM | > 100 µM |  |
| O=C(NNC(=O)c1ccccc1O)c1ccco1 | > 100 µM | > 100 | > 100 µM | > 100 | > 100 µM | > 100 µM | > 100 µM | > 100 µM | > 100 µM | > 100 µM | > 100 µM | > 100 µM | > 100 µM | > 100 µM | > 100 µM | > 100 µM | > 100 µM | > 100 µM | > 100 µM |  |
| Nc1nnc2oc3ccc4ccccc4c3cc1-2 | 72.7 µM | > 100 | > 100 µM | 71.8 | > 100 µM | > 100 µM | > 100 µM | 65.4 µM | > 100 µM | > 100 µM | > 100 µM | > 100 µM | > 100 µM | > 100 µM | 89.8 µM | > 100 µM | > 100 µM | > 100 µM | > 100 µM |  |
| Cn1ccoc1=Nc1ccc(Cl)c(Cl)c1 | > 10 µM | > 10 | > 10 µM | > 10 | > 10 µM | > 10 µM | > 10 µM | > 10 µM | > 10 µM | > 10 µM | > 10 µM | > 10 µM | > 10 µM | > 10 µM | > 10 µM | > 10 µM | > 10 µM | > 10 µM | > 10 µM |  |
| O=C(CSc1nc2ccc(I)cc2c(=O)n1Cc1ccccc1)NN1C(=O)c2ccccc2C1=O | > 100 µM | > 100 | > 100 µM | 35.7 | 57.3 µM | 38.2 µM | 68.6 µM | 50 µM | > 100 µM | 6.14 µM | 29.4 µM | 49.9 µM | 42.2 µM | 34.1 µM | 62.8 µM | 36.4 µM | 70.7 µM | 95 µM | 44.9 µM |  |
| CC(C)(C)OC(=O)NC(CS(=O)(=O)O)C(=O)O (centres undefined) | > 100 µM | > 100 | > 100 µM | > 100 | > 100 µM | > 100 µM | > 100 µM | > 100 µM | > 100 µM | > 100 µM | > 100 µM | > 100 µM | > 100 µM | > 100 µM | > 100 µM | > 100 µM | > 100 µM | > 100 µM | > 100 µM |  |
| COCCOC1=C(Cl)C(=O)c2c(O)ccc(O)c2C1=O | 3.19 µM | 3.04 | 26.8 µM | 22.2 | 29.2 µM | 4.34 µM | 5.15 µM | 6.61 µM | 1.75 µM | 3.83 µM | 35.1 µM | 5.07 µM | 11.5 µM | 6.66 µM | 2.17 µM | 13 µM | 10.7 µM | 0.481 µM | 3.28 µM |  |
| Cc1cccc(/C=N/NC(=S)N(C)CCc2ccccn2)n1 | > 100 µM | > 100 | > 100 µM | 1.03 | > 100 µM | > 100 µM | 9.4 µM | > 100 µM | 0.388 µM | 2.36 µM | > 100 µM | > 100 µM | > 100 µM | > 59 µM | > 54 µM | > 100 µM | 1.02 µM | > 100 µM | > 100 µM |  |
| CC(=O)Oc1ccc(/C=C/C(=O)OCCOC(=O)/C=C/c2ccc(OC(C)=O)c(OC(C)=O)c2)cc1OC(C)=O | 20.7 µM | 28.6 | 22.1 µM | 52.5 | > 77.9 µM | 28.4 µM | 20.1 µM | 43 µM | 24.5 µM | 15.3 µM | 25.4 µM | 29.4 µM | 45 µM | 35 µM | 30.1 µM | 56.5 µM | 16.3 µM | > 38.5 µM | 16.3 µM |  |
| COc1ccc2c(c1)/C(=C\c1c(Cl)n(-c3ccccc3)c3ccccc13)C(=O)N2 | > 100 µM | 29.5 | 14.7 µM | 32 | 22.1 µM | 41.4 µM | 21.3 µM | 75.4 µM | 45.4 µM | 18.3 µM | 25.9 µM | > 100 µM | 57.5 µM | > 100 µM | 19.3 µM | 20.3 µM | 32.6 µM | > 100 µM | 92.7 µM |  |
| CN(C)CCCN1c2ccc([N+](=O)[O-])cc2CCc2cc([N+](=O)[O-])ccc21 | > 100 µM and 31.4 µM | 31.2 | 28.6 µM and 33.1 µM | 22.5 | 32 µM and 29.1 µM | 14 µM and 31.3 µM | 29.5 µM and 23.1 µM | 32.1 µM and 36.3 µM | 55.3 µM and 34.1 µM | 37.4 µM and 25 µM | 29.4 µM and 29.8 µM | 30 µM and 29.3 µM | 28.5 µM and 29.4 µM | 29.5 µM and 30 µM | 23.2 µM and 32.8 µM | 30.2 µM and 29 µM | 26.3 µM and 28.2 µM | 42.9 µM and 25.3 µM | 32.4 µM and 26.5 µM | 30.4 µM and 13.1 µM |
| N=c1oc2ccccc2cc1C(=O)Nc1nccs1 | 47.7 µM | > 100 | > 100 µM | > 100 | > 100 µM | > 74.2 µM | > 100 µM | > 84 µM | 50.5 µM | 0.22 µM | > 100 µM | > 100 µM | > 79.5 µM | > 92.4 µM | > 100 µM | > 100 µM | > 100 µM | 22.1 µM | 7.71 µM |  |
